# Experiments:
# [1] = The drug is tested on Z-027 corresponding to metagenome with ENA study accession number: PRJEB37062 and ENA sample accession number: ERS12561826 for biotransformation under anaerobic condition. The drug concentrations were measured over 9 timepoints collected between 0 and 24 hours of incubation by liquid-chromatography-coupled mass spectrometry (LC–MS); settings: 2 µM
# [2] = (§1) The drug is tested on Z-024 corresponding to pig gut metagenome with ENA study accession number: PRJEB37062 and ENA sample accession number: ERS12561823 for biotransformation under anaerobic condition. The drug concentrations were measured over 9 timepoints collected between 0 and 24 hours of incubation by liquid-chromatography-coupled mass spectrometry (LC–MS); settings: 2 µM
# [3] = as §1, with “WLS-073” for “Z-024”, “human” for “pig”, “ERS12561749” for “ERS12561823”; settings: 2 µM
# [4] = as §1, with “WLS-006” for “Z-024”, “human” for “pig”, “ERS12561741” for “ERS12561823”; settings: 2 µM
# [5] = human gut metagenome, 24 h, 2 µM
# [6] = human gut metagenome, 24 h, 2 µM; remark: listed apart in the source
# [7] = human gut metagenome, 24 h, 2 µM; remark: listed apart in the source
# [8] = human gut metagenome, 24 h, 2 µM; remark: listed apart in the source
# [9] = human gut metagenome, 24 h, 2 µM; remark: listed apart in the source
# Also: call rule not given here.
SMILES,Bacterial Biotransformation [1],Bacterial Biotransformation [2],Bacterial Biotransformation [3],Bacterial Biotransformation [4],Bacterial Biotransformation [5],Bacterial Biotransformation [6],Bacterial Biotransformation [7],Bacterial Biotransformation [8],Bacterial Biotransformation [9]
CC(=O)OCC(=O)[C@@]12N=C(C)O[C@@H]1C[C@H]1[C@@H]3CCC4=CC(=O)C=C[C@]4(C)[C@H]3[C@@H](O)C[C@@]12C [DEFLAZACORT],Compound metabolized,Compound metabolized,Compound metabolized,Compound metabolized,Compound metabolized,Compound metabolized,Compound metabolized,Compound metabolized,Compound metabolized
CN(C)CC(c1ccc(O)cc1)C1(O)CCCCC1.O=C(O)CCC(=O)O (stereo unspecified) [DESVENLAFAXINE SUCCINATE],Compound NOT metabolized,Compound NOT metabolized,Compound NOT metabolized,Compound NOT metabolized,Compound NOT metabolized,Compound NOT metabolized,Compound NOT metabolized,Compound NOT metabolized,Compound NOT metabolized
CN1CCN(C(=O)O[C@H]2c3nccnc3C(=O)N2c2ccc(Cl)cn2)CC1 [ESZOPICLONE],Compound NOT metabolized,Compound NOT metabolized,Compound NOT metabolized,Compound NOT metabolized,Compound NOT metabolized,Compound NOT metabolized,Compound NOT metabolized,Compound NOT metabolized,Compound NOT metabolized
O=C1[C@H](CC[C@H](O)c2ccc(F)cc2)[C@@H](c2ccc(O)cc2)N1c1ccc(F)cc1 [EZETIMIBE],Compound NOT metabolized,Compound NOT metabolized,Compound metabolized,Compound metabolized,Compound metabolized,Compound metabolized,Compound NOT metabolized,Compound NOT metabolized,Compound NOT metabolized
CC(C)OC(=O)C(C)(C)Oc1ccc(C(=O)c2ccc(Cl)cc2)cc1 [FENOFIBRATE],Compound metabolized,Compound NOT metabolized,Compound NOT metabolized,Compound metabolized,Compound NOT metabolized,Compound metabolized,Compound metabolized,Compound metabolized,Compound metabolized
O=C1NCC2(CCN(CCc3ccccc3)CC2)O1 [FENSPIRIDE],Compound NOT metabolized,Compound NOT metabolized,Compound NOT metabolized,Compound NOT metabolized,Compound NOT metabolized,Compound NOT metabolized,Compound NOT metabolized,Compound metabolized,Compound NOT metabolized
OC(Cn1cncn1)(Cn1cncn1)c1ccc(F)cc1F [FLUCONAZOLE],Compound NOT metabolized,Compound metabolized,Compound NOT metabolized,Compound metabolized,Compound NOT metabolized,Compound metabolized,Compound metabolized,Compound metabolized,Compound metabolized
CNCCC(Oc1ccc(C(F)(F)F)cc1)c1ccccc1 (stereo unspecified) [FLUOXETINE],Compound NOT metabolized,Compound NOT metabolized,Compound NOT metabolized,Compound NOT metabolized,Compound NOT metabolized,Compound NOT metabolized,Compound NOT metabolized,Compound NOT metabolized,Compound metabolized
O=C(CCCN1CCC(O)(c2ccc(Cl)cc2)CC1)c1ccc(F)cc1 [HALOPERIDOL],Compound NOT metabolized,Compound NOT metabolized,Compound NOT metabolized,Compound metabolized,Compound NOT metabolized,Compound metabolized,Compound metabolized,Compound metabolized,Compound metabolized
CCCCC1=NC2(CCCC2)C(=O)N1Cc1ccc(-c2ccccc2-c2nnn[nH]2)cc1 [IRBESARTAN],Compound NOT metabolized,Compound metabolized,Compound metabolized,Compound metabolized,Compound metabolized,Compound metabolized,Compound metabolized,Compound metabolized,Compound metabolized
NC(CO)(CO)CO.O=C(c1ccccc1)c1ccc2n1CCC2C(=O)O (stereo unspecified) [KETOROLAC TROMETHAMINE],Compound metabolized,Compound metabolized,Compound metabolized,Compound metabolized,Compound metabolized,Compound metabolized,Compound metabolized,Compound metabolized,Compound metabolized
CC[C@H](C)C(=O)O[C@H]1C[C@@H](C)C=C2C=C[C@H](C)[C@H](CC[C@@H]3C[C@@H](O)CC(=O)O3)[C@H]21 [LOVASTATIN],Compound NOT metabolized,Compound metabolized,Compound NOT metabolized,Compound NOT metabolized,Compound NOT metabolized,Compound NOT metabolized,Compound NOT metabolized,Compound NOT metabolized,Compound NOT metabolized
CN1C(=O)CC(C)(c2ccccc2)C1=O (stereo unspecified) [METHSUXIMIDE],Compound NOT metabolized,Compound metabolized,Compound NOT metabolized,Compound NOT metabolized,Compound NOT metabolized,Compound NOT metabolized,Compound metabolized,Compound metabolized,Compound NOT metabolized
CNC(=C[N+](=O)[O-])NCCSCc1csc(CN(C)C)n1 [NIZATIDINE],Compound NOT metabolized,Compound NOT metabolized,Compound metabolized,Compound metabolized,Compound metabolized,Compound NOT metabolized,Compound metabolized,Compound metabolized,Compound metabolized
COc1ccc2[nH]c([S+]([O-])Cc3ncc(C)c(OC)c3C)nc2c1 (stereo unspecified) [OMEPRAZOLE],Compound metabolized,Compound NOT metabolized,Compound metabolized,Compound metabolized,Compound metabolized,Compound metabolized,Compound metabolized,Compound metabolized,Compound metabolized
O=C(O)CCc1nc(-c2ccccc2)c(-c2ccccc2)o1 [OXAPROZIN],Compound metabolized,Compound NOT metabolized,Compound metabolized,Compound metabolized,Compound metabolized,Compound metabolized,Compound metabolized,Compound metabolized,Compound metabolized
Cc1nc2n(c(=O)c1CCN1CCC(c3noc4cc(F)ccc34)CC1)CCCC2O (stereo unspecified) [PALIPERIDONE],Compound NOT metabolized,Compound metabolized,Compound metabolized,Compound metabolized,Compound metabolized,Compound metabolized,Compound metabolized,Compound metabolized,Compound metabolized
CC(C)(C)NC[C@H](O)COc1ccccc1C1CCCC1.CC(C)(C)NC[C@H](O)COc1ccccc1C1CCCC1.O=S(=O)(O)O [PENBUTOLOL SULFATE],Compound NOT metabolized,Compound metabolized,Compound metabolized,Compound metabolized,Compound metabolized,Compound metabolized,Compound metabolized,Compound metabolized,Compound metabolized
CCOc1ccc(NC(C)=O)cc1 [PHENACETIN],Compound NOT metabolized,Compound NOT metabolized,Compound NOT metabolized,Compound NOT metabolized,Compound NOT metabolized,Compound NOT metabolized,Compound NOT metabolized,Compound NOT metabolized,Compound NOT metabolized
